# Reference: ChEMBL document CHEMBL1201862, “PubChem BioAssay data set” (2004)
# Activity calls are given as the source filed them.
# Legend:
# [1] = human group III sPLA2 inhibitors, dose response, biochemical, QFRET, IC50 (AID 743457);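 further: green fluorescence rise as the enzyme cleaves BODIPY PC-A2 in liposomes; potency for inhibition of the enzyme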
# [2] = biological target: T1, Heat shock factor protein 1 (Mus musculus, UniProt P38532); assay: HSF1 potentiators in luciferase reporter cells, confirmation, cell-based, NIH3T3, luminescence, dose retest (AID 435004); format: functional;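 further: stress induced by proteasome inhibitor MG132 added 30 min after compound; luciferase reporter driven by HSF1 response element in NIH3T3 cells; actives raise luminescence as potentiators of the MG132 stress response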
# T1 sequence (P38532 whole entry): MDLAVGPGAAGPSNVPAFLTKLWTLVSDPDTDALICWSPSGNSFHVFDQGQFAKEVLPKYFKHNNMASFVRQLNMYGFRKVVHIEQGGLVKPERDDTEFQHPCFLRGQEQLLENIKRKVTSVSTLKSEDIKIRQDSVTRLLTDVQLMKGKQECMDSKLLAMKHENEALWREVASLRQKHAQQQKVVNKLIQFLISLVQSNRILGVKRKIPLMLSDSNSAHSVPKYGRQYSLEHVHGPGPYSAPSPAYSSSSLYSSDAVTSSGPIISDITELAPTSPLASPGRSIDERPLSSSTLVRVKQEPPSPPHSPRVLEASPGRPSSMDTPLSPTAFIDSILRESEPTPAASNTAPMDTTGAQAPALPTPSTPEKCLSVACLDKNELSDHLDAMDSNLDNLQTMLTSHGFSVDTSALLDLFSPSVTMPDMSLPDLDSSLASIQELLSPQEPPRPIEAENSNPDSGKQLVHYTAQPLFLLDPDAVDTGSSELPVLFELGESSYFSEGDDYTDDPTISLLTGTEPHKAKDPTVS
# [3] = biological target: T2, DNA repair protein RAD52 homolog (Homo sapiens, UniProt P43351); format: functional, biochemical
# T2 sequence (P43351 whole entry): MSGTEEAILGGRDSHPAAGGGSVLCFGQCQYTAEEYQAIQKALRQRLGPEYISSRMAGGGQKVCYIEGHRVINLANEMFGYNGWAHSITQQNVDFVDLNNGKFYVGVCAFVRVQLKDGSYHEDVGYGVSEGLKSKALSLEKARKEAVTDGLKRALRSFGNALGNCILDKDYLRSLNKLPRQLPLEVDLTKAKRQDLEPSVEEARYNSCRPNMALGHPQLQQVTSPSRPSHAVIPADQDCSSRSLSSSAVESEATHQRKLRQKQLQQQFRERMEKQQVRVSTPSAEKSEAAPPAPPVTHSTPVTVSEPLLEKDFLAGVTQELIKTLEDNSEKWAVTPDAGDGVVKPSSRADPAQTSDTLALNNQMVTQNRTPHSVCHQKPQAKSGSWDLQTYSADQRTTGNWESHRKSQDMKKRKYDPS
# [4] = biological target: T3, Corticotropin-releasing factor receptor 2/Corticotropin-releasing factor-binding protein (Homo sapiens, UniProt P24387+Q13324); assay: Dose Response confirmation of uHTS hits for small molecule antagonists of the CRF-binding protein and CRF-R2 receptor complex.; format: functional; conditions: read-out: IC50_Mean
# T3 sequence (Q13324 whole entry): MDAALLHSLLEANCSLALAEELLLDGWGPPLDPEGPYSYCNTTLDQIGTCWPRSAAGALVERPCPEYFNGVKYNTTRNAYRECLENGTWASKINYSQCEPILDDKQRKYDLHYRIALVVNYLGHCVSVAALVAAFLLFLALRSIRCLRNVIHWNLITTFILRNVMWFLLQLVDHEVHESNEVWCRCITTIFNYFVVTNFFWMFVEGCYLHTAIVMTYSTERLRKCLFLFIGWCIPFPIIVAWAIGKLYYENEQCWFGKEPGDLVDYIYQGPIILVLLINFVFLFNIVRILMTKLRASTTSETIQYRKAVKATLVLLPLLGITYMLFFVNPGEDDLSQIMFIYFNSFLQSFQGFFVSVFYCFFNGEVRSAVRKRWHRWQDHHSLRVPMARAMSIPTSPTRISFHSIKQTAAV
# T3 sequence (P24387 whole entry): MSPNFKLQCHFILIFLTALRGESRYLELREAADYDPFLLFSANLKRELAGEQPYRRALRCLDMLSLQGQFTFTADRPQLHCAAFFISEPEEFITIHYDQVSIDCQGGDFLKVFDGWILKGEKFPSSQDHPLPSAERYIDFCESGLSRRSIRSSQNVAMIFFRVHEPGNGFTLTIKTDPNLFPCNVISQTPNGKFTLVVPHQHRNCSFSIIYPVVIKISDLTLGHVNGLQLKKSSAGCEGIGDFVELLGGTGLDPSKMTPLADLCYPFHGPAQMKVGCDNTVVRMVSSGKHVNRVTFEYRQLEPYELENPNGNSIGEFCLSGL
# [5] = biological target: T3, Corticotropin-releasing factor receptor 2/Corticotropin-releasing factor-binding protein; assay: activators of CRF receptor 2 with binding protein – uHTS hits, confirmation (AID 602473); format: functional; conditions: read-out: EC50_Mean
# cells [6] = format: functional, cell-based
# [7] = biological target: T4, Trace amine-associated receptor 1 (Homo sapiens, UniProt Q96RJ0); assay: Counterscreen for agonists of the human trace amine associated receptor 1 (hTAAR1): Fluorescence-based cell-based high throughput dose response assay to identify hTAAR1 agonist that also desensitize TAAR1 receptor response.; format: functional
# T4 sequence (Q96RJ0 whole entry): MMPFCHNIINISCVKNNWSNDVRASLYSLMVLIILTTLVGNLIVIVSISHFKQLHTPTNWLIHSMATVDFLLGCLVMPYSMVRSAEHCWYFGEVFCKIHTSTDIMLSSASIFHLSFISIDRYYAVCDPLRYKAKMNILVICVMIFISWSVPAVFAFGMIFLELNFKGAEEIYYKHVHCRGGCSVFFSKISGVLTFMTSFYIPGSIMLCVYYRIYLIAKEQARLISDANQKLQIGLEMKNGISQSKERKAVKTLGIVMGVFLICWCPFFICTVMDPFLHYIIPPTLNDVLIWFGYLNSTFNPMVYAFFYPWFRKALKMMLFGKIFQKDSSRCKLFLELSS
# [8] = biological target: T4, Trace amine-associated receptor 1; assay: Fluorescence-based cell-based high throughput dose response assay to identify agonists of the human trace amine associated receptor 1 (TAAR1).; format: functional
# cells [9] = format: functional, cell-based; remark: listed apart in the source
# [10] = inhibitors of Vif binding to APOBEC3G peptide, primary screen, biochemical, TR-FRET, GST-Vif 1-94, biotin-A3G peptide, dose response retest (AID 1117319); format: functional;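 further: TR-FRET signal of purified GST-Vif binding a biotinylated A3G peptide; inhibitors lower the FRET signal by blocking Vif and A3G binding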
# [11] = biological target: T5, RNA-editing ligase 1, mitochondrial (Trypanosoma brucei brucei, UniProt P86926); assay: TbREL1 ligase inhibitors, dose response, biochemical, fluorescence, Trypanosoma brucei (AID 1117295); format: functional
# T5 sequence (P86926 whole entry): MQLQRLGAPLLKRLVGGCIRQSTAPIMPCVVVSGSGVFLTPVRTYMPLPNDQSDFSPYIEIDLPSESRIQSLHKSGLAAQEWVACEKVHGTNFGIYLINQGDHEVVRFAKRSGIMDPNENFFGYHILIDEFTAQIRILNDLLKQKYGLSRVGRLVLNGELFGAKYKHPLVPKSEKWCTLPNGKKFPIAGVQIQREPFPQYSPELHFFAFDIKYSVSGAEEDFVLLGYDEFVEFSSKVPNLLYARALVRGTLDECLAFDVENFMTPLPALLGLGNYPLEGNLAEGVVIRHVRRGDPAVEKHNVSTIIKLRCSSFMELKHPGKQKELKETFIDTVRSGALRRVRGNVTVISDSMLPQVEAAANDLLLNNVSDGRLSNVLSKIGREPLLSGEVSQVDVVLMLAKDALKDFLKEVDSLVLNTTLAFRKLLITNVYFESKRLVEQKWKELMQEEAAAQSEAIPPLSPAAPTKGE
# Paired box protein Pax-8 = Paired box protein Pax-8 (Homo sapiens, UniProt Q06710); assay: inhibitors of PAX8-driven TPO luciferase reporter, dose response, RMG-I cells, cherry-pick (AID 687027); format: functional, cell-based;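 further: luciferase reporter driven by Pax8 target thyroperoxidase promoter measured by SteadyGlo luminescence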
# [12] = IGROV1 ovarian cancer cell cytotoxicity, dose response, PAX8 inhibitor project, plate reader, dry powder samples (AID 743043); format: functional, cell-based; conditions: IGROV-1
# [13] = ADAM10 inhibitors, peptide cleavage, dose response, biochemical, QFRET (AID 743254);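 further: ADAM10 enzyme with the DM2 quenched FRET peptide as substrate; EDANS fluorescence gain as the protease cuts the substrate; inhibitor potency against ADAM10 proteolytic activity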
# [14] = biological target: T6, Disintegrin and metalloproteinase domain-containing protein 17 (Homo sapiens, UniProt P78536); assay: exosite inhibitors of ADAM17, dose response, biochemical (AID 743260)
# [15] = biological target: T6, Disintegrin and metalloproteinase domain-containing protein 17; assay: ADAM17 protease inhibitors, dose response, counter-screen for ADAM10 exosite inhibitor project, biochemical, quenched FRET substrate (AID 743253)
# T6 sequence (P78536 whole entry, the tested form may be a part): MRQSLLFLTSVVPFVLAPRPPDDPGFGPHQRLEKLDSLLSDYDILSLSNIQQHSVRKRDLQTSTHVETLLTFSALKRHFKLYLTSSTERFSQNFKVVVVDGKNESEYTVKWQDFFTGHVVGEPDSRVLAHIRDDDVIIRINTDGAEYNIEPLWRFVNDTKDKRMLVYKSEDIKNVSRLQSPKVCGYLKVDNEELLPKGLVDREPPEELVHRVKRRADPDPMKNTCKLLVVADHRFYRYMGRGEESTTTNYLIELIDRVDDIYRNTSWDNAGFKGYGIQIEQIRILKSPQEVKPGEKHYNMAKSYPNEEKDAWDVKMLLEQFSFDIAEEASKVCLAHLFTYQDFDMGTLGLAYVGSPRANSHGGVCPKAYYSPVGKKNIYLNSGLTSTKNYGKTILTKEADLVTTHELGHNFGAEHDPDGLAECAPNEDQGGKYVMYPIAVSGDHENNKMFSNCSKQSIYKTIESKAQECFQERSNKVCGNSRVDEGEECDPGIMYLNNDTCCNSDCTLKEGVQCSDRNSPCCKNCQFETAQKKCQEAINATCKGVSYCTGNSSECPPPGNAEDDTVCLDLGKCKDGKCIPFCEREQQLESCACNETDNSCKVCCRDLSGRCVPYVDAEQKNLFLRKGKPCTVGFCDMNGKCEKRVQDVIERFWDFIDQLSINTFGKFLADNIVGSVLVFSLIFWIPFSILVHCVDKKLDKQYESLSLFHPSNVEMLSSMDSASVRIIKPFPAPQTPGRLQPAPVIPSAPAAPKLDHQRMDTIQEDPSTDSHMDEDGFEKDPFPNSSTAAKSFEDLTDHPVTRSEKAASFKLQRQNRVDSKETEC
# Paired box protein Pax-8, sequence (Q06710 whole entry): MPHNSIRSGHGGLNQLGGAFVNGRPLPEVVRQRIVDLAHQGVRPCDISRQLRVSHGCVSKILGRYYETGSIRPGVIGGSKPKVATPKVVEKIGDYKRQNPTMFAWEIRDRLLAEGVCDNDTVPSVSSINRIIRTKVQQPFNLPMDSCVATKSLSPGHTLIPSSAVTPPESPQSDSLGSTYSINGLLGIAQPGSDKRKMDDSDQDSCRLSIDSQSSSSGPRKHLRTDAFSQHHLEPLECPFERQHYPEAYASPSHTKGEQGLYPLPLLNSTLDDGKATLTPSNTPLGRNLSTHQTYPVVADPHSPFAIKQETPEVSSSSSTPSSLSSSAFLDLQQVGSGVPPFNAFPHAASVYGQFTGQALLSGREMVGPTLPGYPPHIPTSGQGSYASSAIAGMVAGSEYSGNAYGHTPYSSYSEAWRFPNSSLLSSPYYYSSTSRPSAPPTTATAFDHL
smiles,measurement,setting,value
C=CCNC(=S)NNC(=O)c1cccn(Cc2ccc(Cl)c(Cl)c2)c1=O,IC50,[1],> 122 µM (inactive)
same,EC50,[2],> 260 µM (inactive)
CC(=O)c1cccc(Nc2cc(C)nc3c(C)cccc23)c1,AC50,[3],21.4 µM (active)
same,IC50,[4],> 47.1 µM (inactive)
same,EC50,[5],> 53 µM (inactive)
O=C(Nc1nccs1)c1[nH]cnc1C(=O)N1CCc2ccccc2C1,EC50,cells [6],> 29.9 µM (inactive)
same,IC50,[7],4.95 µM (active)
same,EC50,[8],0.858 µM (active)
same,IC50,cells [9],> 29.9 µM (inactive)
Cc1cc(NC(=O)CSc2nnc(-c3ccoc3C)n2N)no1,IC50,[10],> 100 µM (active)
COc1cccc(CNc2nc(NCc3ccccc3)nc3ccsc23)c1,IC50,[11],> 96.6 µM (inactive)
O=C(N[C@@H](Cc1cccnc1)C(=O)N1CCC[C@H]1C(=O)NCCc1ccccc1Cl)c1cccs1,EC50,cells [6],> 29.9 µM (inactive)
same,IC50,[7],14.4 µM (inactive)
same,EC50,[8],8.12 µM (active)
same,IC50,cells [9],> 29.9 µM (inactive)
Cc1ccc(S(=O)(=O)Nc2ccc3c(c2)C(=O)N([C@H](C)CO)C[C@@H](C)[C@H](CN(C)S(=O)(=O)c2ccc(C)cc2)OCCCC[C@H](C)O3)cc1,AC50,Paired box protein Pax-8,9.07 µM (active)
same,AC50,[12],51.4 µM (active)
CCN(CC)c1ccc(C=NNC(=O)c2cc(-c3ccc(C)c(C)c3)[nH]n2)c(O)c1,IC50,[1],> 122 µM (inactive)
Cc1ccccc1NC(C)C(=O)N/N=C/c1ccccc1OCc1cccc(Br)c1 (stereo not given),IC50,[13],> 69.5 µM (inactive)
same,IC50,[14],> 69.5 µM (inactive)
same,IC50,[15],> 69.5 µM (inactive)
Cc1ccsc1/C=N\Nc1cnnc(O)c1Cl,EC50,cells [6],> 29.9 µM (inactive)
same,IC50,[7],8.29 µM (active)
same,EC50,[8],2.16 µM (active)
same,IC50,cells [9],> 29.9 µM (inactive)
